Experiments:
Format in all cases: cell-based, Saccharomyces cerevisiae W303
[1] = tested on: promoter of yeast gene YKL071w; settings: SC-YKL071W-pQBI cells, 25° C., two hours; each substance at the concentration given
Excerpt: (§1) The inventors of the present application understood that the induction of certain yeast genes by toxic substances is caused by the activation of the promoters of the genes by the toxic substances. Thus, the inventors prepared a vector that comprised a polynucleotide sequence comprising the promoter of the yeast gene, which sequence is operably linked to a polynucleotide encoding a marker protein; and transformed yeast cells with the vector. […] The working examples hereinafter illustrate the preparation of such vectors, transformation of yeast cells by use of said vectors, and the detection of toxic substances by use of the transformed cells.
(§2) Promoter assay is a method for determining variations of the level of intracellular genes without destroying cells on the basis of the level of expressed marker genes instead of the expressed mRNA. The gene selected to detect a chemical substance is expressed in the absence of chemical substances, and thus a marker protein also occurs in the absence of chemical substances. In the method according to the present invention, the behavior of yeast genes on the addition of test materials is determined on the basis of the level of expressed marker protein so that the presence or the absence, and the kind of toxic chemical substances are predicted. Thus, it is desired that the production of marker proteins is lower in the absence of chemical substances, and the production of marker proteins is higher in the presence of chemical substances.
(§3) Type YEp shuttle vector pYES2 (pYES2, Cat no: V825-20, Invirtogen Corporation, USA), which can be replicated both in E. coli. and yeast was used as vector (R. W. Old, S. B. Primrose Principles of Gene Manipulation 5th Ed., BAIFUKAN CO., LTD, pp138-165, pp.234-263, 2000). The portion of vector pQBI 63 (Cat no.54-0082, Wako Pure Chemical Industries, Ltd.) corresponding to a marker protein GFP was used as the polynucleotide encoding GFP (SEQ ID No: 6). First, the GFP polynucleotide was inserted into the multiple cloning sites of pYES2 to give a vector. Thereafter, the GAL1 promoter of pYES2 was replaced with the polynucleotide comprising the promoter sequence of the intended yeast gene YKL071w (SEQ ID No: 1) to give an intended plasmid vector. Suitable restriction enzymes were selected, and the insertion of the polynucleotide comprising GFP and the promoter sequence was conducted.
(§4) Next, the yeast Saccharomyces cerevisiae W303 was transformed with the resultant plasmid vector according to the following procedures: • 1) Incubating the yeast Saccharomyces cerevisiae W303 in 200 ml of SD medium under shaking until OD 660 reaches 0.5; • 2) Suspending the collected cells in 5 ml of TE-buffer; • 3) Adding 250 μL of 2.5M lithium acetate; • 4) Dispending each 300 μl, adding 10 μl of above plasmid vector thereto, then incubating the suspensions at 30° C. for 30 minutes; • 5) Adding 700 μl of 50% PEG4000, and incubating the mixture under shaking at 30° C. for 60 minutes; • 6) Giving heat shock (42° C., 5 minutes), and then immediately cooling the mixture; • 7) Washing the mixture twice with 1M sorbitol; and • 8) Seeding it on agar plates made of minimum essential medium.
(§5) The cells of SC-YKL071W-pQBI as prepared in Example 2 were contacted to one of the following compounds. The yeast cells SC-YKL071W-pQBI were incubated at 25° C. in SD medium (Yeast nitrogen base without amino acids (Difco 0919-15)+glucose+amino acids (adenine, histidine, tryptophan)). One of toxic chemical substances as shown below was added to the cells at logarithmic growth phase, and then the cells were further incubated for two hours.

[2] = tested on: promoter of yeast gene YLR303w
Excerpt: as §1, §2
as §3, with “YLR303w” for “YKL071w”, “5)” for “1)”
as §4
as §5, with “of SC-YCR303W-pQBI” for “of SC-YKL071W-pQBI”, “Example 6” for “Example 2”, “cells SC-YCR303W-pQBI” for “cells SC-YKL071W-pQBI”

[3] = tested on: promoter of yeast gene YOR382w; settings: for Fluorescence: cells SC-YOR382W-pQBI, 2 hours incubation with the substance at the concentration printed in its row (column Concentrations), GFP fluorescence vs control without chemical
Excerpt: as §1, §2
as §3, with “YOR382w” for “YKL071w”, “3)” for “1)”
as §4
as §5, with “of SC-YOR382W-pQBI” for “of SC-YKL071W-pQBI”, “Example 4” for “Example 2”, “cells SC-YOR382W-pQBI” for “cells SC-YKL071W-pQBI”

Row | Substance | Fluorescens [1] | expression of GFP ([2]; SC-YCR303W-pQBI cells (so in the source), summary of Table 14) | expression of GFP ([3]; SC-YOR382W-pQBI cells, summary of Table 12) | Fluorescence [3] | Fluorescence ([2]; cells SC-YCR303W-pQBI (so in the source), 2 hours incubation with the substance at the concentration printed in its row (column Concentrations), GFP fluorescence vs control without chemical)
1 | manganese ethylenebis(dithiocarbamate) [(8)] | − (the number of the cells having a higher fluorescence than the control was under 1%) | induced the expression of GFP | induced the expression of GFP | ++ (2% or more) | 
2 | γ-hexachlorocyclohexane [(7)] | − (the number of the cells having a higher fluorescence than the control was under 1%) |  |  | − (the number of the cells having a higher fluorescence than the control was under 1%) | − (the number of the cells having a higher fluorescence than the control was under 1%)

— patent US20050112573A1, “Method of detecting toxic substance” (priority 2001, published 2005)
